From PMC6718442, “11β-Hydroxysteroid dehydrogenases control access of 7β,27-dihydroxycholesterol to retinoid-related orphan receptor γ” (Journal of Lipid Research, 2019)
Several values for one entry are separate records, joined by “and”; a condition that tells them apart may be missing. Equal values may be shown once.

Molecular target: T1, 11β-HSD2 (Homo sapiens, UniProt P80365)
T1 construct: expressed in transfected cells
T1 sequence (P80365 1-405): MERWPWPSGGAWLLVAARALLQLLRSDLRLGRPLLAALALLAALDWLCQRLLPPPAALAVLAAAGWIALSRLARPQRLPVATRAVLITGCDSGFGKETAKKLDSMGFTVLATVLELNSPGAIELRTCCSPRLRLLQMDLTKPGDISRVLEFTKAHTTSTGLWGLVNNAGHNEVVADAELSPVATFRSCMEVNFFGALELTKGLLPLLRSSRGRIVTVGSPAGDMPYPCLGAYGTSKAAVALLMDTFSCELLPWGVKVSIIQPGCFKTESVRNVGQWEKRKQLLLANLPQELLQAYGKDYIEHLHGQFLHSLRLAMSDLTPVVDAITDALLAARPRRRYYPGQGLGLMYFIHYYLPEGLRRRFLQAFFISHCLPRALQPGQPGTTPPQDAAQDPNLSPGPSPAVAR
Assay: 11β-HSD2-dependent metabolism of 7-oxygenated 27OHCs in intact HEK-293 cells expressing 11β-HSD2
Format: cell-based
Conditions: for Metabolism by 11β-HSD2 in intact cells (in words): 500 nM substrate, 30 min
Protocol: Fifty thousand stably transfected HEK-293 cells expressing either 11β-HSD2 [clone AT8 ([34])] or 11β-HSD1 and hexose-6-phosphate dehydrogenase (H6PDH) [clone HHH7 ([35])] were seeded in poly-L-lysine-coated 96-well plates and incubated for 24 h. H6PDH provides the cofactor NADPH and is required for an efficient oxoreduction reaction by 11β-HSD1 ([36]). The medium was changed to steroid- and phenol red-free DMEM (DMEM SF) for another 2 h and the cells were then treated with 1 μM of 7k27OHC in the presence or absence of 1 μM of T0504 (to inhibit 11β-HSD1) or 0.5 μM of 7β27OHC or 7α27OHC in the presence or absence of 5 μM of glycyrrhetinic acid (GA) (to inhibit 11β-HSD2). Metabolic conversion was determined after 0.5 h for 11β-HSD2 and after 1 h for 11β-HSD1.
Ice-cold acetonitrile:isopropanol (7:3, v/v) mixture containing either 100 nM deuterium-labeled 7β27OHC or corticosterone as internal standards were used to extract oxysterols from cell culture supernatants. Additionally, 1.5% (v/v) of a standard solution of the antioxidant butylated hydroxytoluene (BHT) and the peroxide reducing agent triphenylphosphine (TPP) (10 mg BHT and 25 mg TPP in 10 ml ethanol) was added ([37]). In experiments with SW-620 cells, oxysterols were extracted from cell supernatants and cells. The samples were incubated for 30 min at 4°C and 700 rotations per minute, centrifuged (16,000 g, 10 min, 4°C), and the supernatant evaporated to dryness under nitrogen to minimize oxidation from atmospheric oxygen. After reconstitution in 50 μl of methanol:ultra-pure water (1:1, v/v), the samples were again centrifuged (16,000 g, 10 min, 4°C) and the supernatants analyzed. Data (mean ± SD) were obtained from three independent experiments.
An Agilent 1290 Infinity UHPLC binary solvent delivery system including a temperature controlled autosampler and a column oven coupled to an Agilent 6490 triple quadrupole mass spectrometer with a jet stream electrospray ionization interface (AJS-ESI) (Agilent Technologies) was used to analyze oxysterols. […]

| Structure (SMILES) | Metabolism by 11β-HSD2 in intact cells (in words) | Vapp cell intact (intact HEK-293 cells, substrate concentration 500 nM) |
| --- | --- | --- |
| C[C@@H](CO)CCC[C@@H](C)[C@H]1CC[C@H]2[C@@H]3[C@H](O)C=C4C[C@@H](O)CC[C@]4(C)[C@H]3CC[C@]12C [7α27OHC] | lack of 7α27OHC metabolism | – |
| CC(CO)CCC[C@@H](C)[C@H]1CC[C@H]2[C@@H]3[C@@H](O)C=C4C[C@@H](O)CC[C@]4(C)[C@H]3CC[C@]12C (stereo partly drawn) [7β27OHC, 7β,27-dihydroxycholesterol] | exclusive oxidation of 7β27OHC to 7k27OHC | 0.6 ± 0.1 nmol·h^−1·mg total protein^−1 and 0.6 ± 0.1^b nmol·h^−1·mg total protein^−1 |
